Publication PMC6009868, “Synthesis and bioactivity of several new hetaryl sulfonamides” (Journal of Enzyme Inhibition and Medicinal Chemistry, 2017)

Experiment: Metal chelating activity (Fe2+-ferrozine, 562 nm)
Conditions: absorbance at 562 nm
Protocol: Metal chelating capacity of hetaryl sulfonamides 1–12 was determined according to Dinis et al.[60]. […] Simultaneously, to a mixture of FeCl2 (0.1 mL, 0.6 mM), three concentrations (10–30 µg/mL) of hetaryl sulfonamides 1–12 in ethanol (0.4 mL) were added. The activities were initiated by the addition of ferrozine molecules (0.1 mL, 5 mM). Additionally, the reaction was mixed and maintained in a dark room for 10 min.

COc1ccc(O)c(C(C)(C)C)c1 [BHA]
Fe^2+ chelating (IC50): 46.20 µg/mL

Cc1cc(C(C)(C)C)c(O)c(C(C)(C)C)c1 [BHT]
Fe^2+ chelating (IC50): 76.96 µg/mL

O=C(O)CN(CCN(CC(=O)O)CC(=O)O)CC(=O)O [EDTA]
Fe^2+ chelating (IC50): 9.36 µg/mL

Cc1c(C)c2c(c(C)c1O)CCC(C)(C(=O)O)O2 (centres unmarked) [Trolox]
Fe^2+ chelating (IC50): 31.13 µg/mL

Cc1c(C)c2c(c(C)c1O)CC[C@@](C)(CCC[C@H](C)CCC[C@H](C)CCCC(C)C)O2 [α-Tocopherol]
Fe^2+ chelating (IC50): 40.76 µg/mL
